In experiment [1] the test system is GBM organotypic cultures. Briefly: Tumor kinome transcription (OpenArray real-time PCR) in GBM organotypic cultures. It counts as cell-based, Human. As to the method: Organotypic cultures. Short-term organotypic cultures from the different patient samples were established as described previously. […]
Bioinformatics analysis. Transcriptional changes in the human kinome following PI3K inhibition were analyzed using OpenArray real-time PCR amplification. […] Ct values from the experiment were exported from BioTrove OpenArray Real-Time qPCR Analysis Software v1.0.4. ΔΔCt value method was used to calculate fold changes between sample pairs with endogenous control Ct value calculated as average among 15 endogenous controls on the array: ALAS1, B2M, CASC3, G6PD, GAPDH, GUSB, HMBS, HPRT1, IPO8, POLR2A, PPIA, RPLP0, TFRC, UBE2D2, and YWHAZ. P-values for differential expression were calculated using fold changes of 15 endogenous controls as a null distribution.
A general note: Quantitative PCR measures a nucleic acid by following its amplification.

The subject of experiment [2] is Ser473-phosphorylated Akt (pAkt). Description: Ser473-phosphorylated Akt in patient-derived organotypic cultures. The experiment is classed as cell-based, Human. As to conditions: Gamitrinib added to PI3K inhibitor-treated tumor organoids. As to the method:
Organotypic cultures. Short-term organotypic cultures from the different patient samples were established as described previously. Briefly, precise thick tissue slices (300 μm) were obtained from each case by vibratome serial cutting (VT1200, Leica Microsystems, Milan, Italy), and cultured in six-well plates on organotypic inserts (Millicell PICM ORG, Merck Millipore) for up to 48 h in 1 ml of Ham-F12 complete medium supplemented with vehicle (DMSO, 2.5 μl), pan-PI3K inhibitor LY294002 (50 or 100 μM) or PX-886 (2.5, 5 or 10 μM), or mitochondrial-targeted small molecule Heat Shock Protein-90 (Hsp90) inhibitor, 10 Gamitrinib (GA mitochondrial matrix inhibitor, 10 or 25 μM), or the combination of PX-886 plus Gamitrinib (each agent used at 10 μM). At the end of the experiment, one tissue slice per condition was formalin-fixed and paraffin-embedded (FFPE), and processed for morphological and immunohistochemical analysis. An additional tissue slice collected at the end of the experiment was embedded in optimal cutting temperature, and snap-frozen for molecular or immunofluorescence studies.

The subject of experiment [3] is LN229 cells. Description: Bliss independence analysis of Gamitrinib and kinase inhibitors. Conditions: Gamitrinib with NVP-BEZ235, GDC-0941 or AZD6482, 7×7 matrix, 18 h. It counts as cell-based, Human. As to the method:
A synergistic anticancer activity of the combination of Gamitrinib and selected kinase inhibitors was further assessed by Bliss independence analysis. For these experiments, LN229 cells were treated with Gamitrinib (concentration range 2-0.008 μmol/L) and selected kinase inhibitors (concentration range 2-0.008 μmol/L) in a 7×7 matrix for 18 h at 37° C. Cell viability was measured by addition of resazurin, and the fractional growth inhibition under the various conditions tested was determined as described above. The Bliss expectation (E) for a combined response was calculated by the equation: E=(A+B)−(A×B) where A and B are the fractional growth inhibitions of drug A and B at a given concentration. […] Each synergy experiment was done two independent times, in duplicate.

The subject of experiment [4] is LN229 cells. Description: High-throughput screening: cell viability (resazurin), compounds with DMSO or Gamitrinib. It counts as cell-based, Human. Conditions: Gamitrinib 1 μM in combination. As to the method: High-throughput screening and synergy experiments. Compounds for the molecular targeted cancer therapeutics were either purchased from SelleckChem or acquired under Material Transfer Agreement (MTA) with the Wistar Institute MTA. Compounds were suspended in DMSO. The purity and identity of the compounds was confirmed by LC/MS for a fraction of the compounds. Source plates with a 10 point dilution series (5-fold dilutions, ranging from 10-0.0001 μmol/L) were prepared for screening. […] Cell viability was determined by the addition of resazurin to a final concentration of 50 μM and incubation for 8 h. Fluorescence intensity (excitation, 560 nm, emission, 590 nm) was determined on an Envision Xcite Multilabel Reader (Perkin-Elmer), and the fractional growth inhibition was determined by normalizing assay wells to the aggregated average responses of positive control (10 μM doxorubicin) and negative control (0.2% DMSO) treatments (n=12).

Experiment [5] relates to PI3 kinase. As to conditions: concentration of 50 μM; cited from earlier work.
In experiment [6] the target is c-Src (Homo sapiens, UniProt P12931). Conditions: concentration of 50 μM; cited from earlier work.
c-Src, sequence (P12931 whole entry, species assumed): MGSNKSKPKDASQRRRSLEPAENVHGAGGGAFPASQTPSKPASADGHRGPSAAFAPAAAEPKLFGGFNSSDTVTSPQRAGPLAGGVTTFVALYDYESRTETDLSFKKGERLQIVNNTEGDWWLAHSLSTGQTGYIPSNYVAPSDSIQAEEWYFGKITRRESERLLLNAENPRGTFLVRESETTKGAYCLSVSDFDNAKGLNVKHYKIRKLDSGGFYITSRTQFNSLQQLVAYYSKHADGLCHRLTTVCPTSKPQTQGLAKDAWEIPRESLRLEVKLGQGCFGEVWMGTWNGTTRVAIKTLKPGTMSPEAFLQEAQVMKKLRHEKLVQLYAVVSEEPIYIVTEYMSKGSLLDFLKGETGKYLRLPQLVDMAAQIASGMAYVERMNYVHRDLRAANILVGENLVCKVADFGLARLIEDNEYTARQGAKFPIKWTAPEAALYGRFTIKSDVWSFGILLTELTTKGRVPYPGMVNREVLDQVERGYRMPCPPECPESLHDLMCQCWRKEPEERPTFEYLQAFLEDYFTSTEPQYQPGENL
The test system of experiment [7] is MAP kinase. Conditions: concentration of 50 μM; cited from earlier work.
Experiment [8] concerns PKC. Conditions: concentration of 50 μM; cited from earlier work.
Experiment [9] deals with PI4 kinase. Conditions: concentration of 50 μM; cited from earlier work.
The test system of experiment [10] is LN229 cells. Description: Global metabolomics screening. It counts as cell-based, Human. As to conditions: 10 μM for 48 h. As to the method:
Metabolomics screen and Reverse Phase Protein Array (RPPA). Changes in expression of 301 individual metabolites in LN229 cells treated with PX-866 (10 μM for 48 h) were determined in a global metabolomics screening as described previously. For RPPA, PC3 or LN229 cells were treated with vehicle, PX-866 (10 μM) or the combination of PX-866 plus Gamitrinib (5 μM) for 24 h. Data in triplicate samples were normalized for protein loading, converted to linear values and then log2 transformed.
Statistical analysis. Data were analyzed using the two-sided unpaired/tests using a GraphPad software package (Prism 4.0) for Windows. Data are expressed as mean±SEM of replicates of a representative experiment out of at least two independent determinations. A p value of ≤0.05 was considered as statistically significant. For RPPA screens, the False Discovery Rate (FDR) values were estimated using Benjamini-Hochberg correction for multiple testing and changes with FDR<20% of at least 1.2 fold were called statistically significant. […] However, biochemicals that were detected in all samples from one or more groups, but not in samples from other groups, were assumed to be near the lower limit of detection in the groups in which they were not detected. In this case, the lowest detected level of these biochemicals was imputed for samples in which that biochemical was not detected. […]

Experiment [11] has as its system CypD. Briefly: CypD level and Ser phosphorylation in reconstituted LN229 cells. The experiment is classed as cell-based, Human. The source says: Mutant constructs were confirmed by DNA sequencing and transfected in CypD-depleted cells for reconstitution experiments. In some experiments, CypD depleted LN229 cells were transfected with WT or mutant CypD constructs and analyzed for bioenergetics (glucose utilization, oxygen consumption, ATP production) or cell viability (JC1 or Annexin V multiparametri staining, cytochrome c release) readouts.

For experiment [12], the system named is LN229 or PC3 cells. Description: Analysis of bioenergetics (ATP, glucose, lactate, oxygen consumption). It counts as cell-based, Human.
The test system of experiment [13] is Akt2 (Ser474) in cytosol and mitochondria. Description: Phosphorylated Akt in cytosol and mitochondrial extracts by Western blotting. Conditions: cytosol and mitochondrial extracts, 48 h. The experiment is classed as cell-based, Human. How it is done: Subcellular and submitochondrial fractionation. Mitochondrial fractions were isolated using an ApoAlertTM cell fractionation kit (CLONTECH), as described. Submitochondrial fractions comprising outer membrane (OM), inner membrane (IM), inter-membrane space (IMS) and matrix were prepared as described.
Background: A western blot detects proteins with antibodies after separation by electrophoresis.

Experiment [14] has as its system Akt phosphorylation. Briefly: Akt phosphorylation in tumor cell lines by Western blotting. Conditions: high (10 μM) and low (0.8 μM) concentrations, within 24 hours. It counts as cell-based, Human.
Experiment [15] has as its system LN229 or PC3 cells. Briefly: Cell cycle, proliferation and viability after PI3K inhibition. It counts as cell-based, Human. As to the method:
(§1) Mitochondrial integrity and cell viability. LN229 or U251 cells were treated with vehicle (DMSO), PI3K inhibitors, BEZ (0.5 μM) or LY294002 (50 μM), alone or combination with Gamitrinib (0.5-5 μM, respectively) for 24 h, and analyzed for changes in mitochondrial membrane potential by JC-1 staining and multiparametric flow cytometry, as described. For cell viability, LN229, U87 or U251 cells treated with vehicle, PI3K inhibitors BEZ or LY294002, or, alternatively, transfected with control cDNA or Δ-p85 dominant negative PI3K mutant, alone or in combination with Gamitrinib, were examined by a 3 (4,5-dimethyl-thyazoyl-2-yl)2,5 diphenyltetrazolium bromide (MTT) colorimetric assay. Changes in cell viability in LN229 cells exposed to PX-866 (0-25 μM) were monitored by Trypan blue staining, or, alternatively, MTT. For apoptosis, LN229 cells (1×10^6) treated with vehicle, Gamitrinib or PI3K inhibitors (BEZ, LY294002), alone or in combination for 24 h, were labeled for annexin V plus propidium iodide (PI) (BD Biosciences), and analyzed by multiparametric flow cytometry (BD), as described. Alternatively, cytosolic fractions isolated from treated tumor cells were analyzed for released cytochrome c, by Western blotting. For analysis of colony-forming ability, PC3 or LN229 cells were treated with vehicle (Veh) or PX-866 (10 μM) and analyzed in a colony formation assay after 12 days. Colonies were stained with crystal violet. In some experiments, LN229 cells treated with PX-866 (0-25 μM) were analyzed for DNA content by PI staining and flow cytometry.

The test system of experiment [16] is PC3 or LN229 cells. Briefly: Colony formation assay. As to conditions: 10 μM, 12 days, compared with control cultures. The experiment is classed as cell-based, Human. How it is done: as §1, with “Colonies were stained with crystal violet. In some experiments, LN229 cells treated with PX-866 (0-25 μM) were analyzed for DNA content by PI staining and flow cytometry.” left out

The test system of experiment [17] is tumor cells. Briefly: Senescence markers (SA-β-Gal, PML nuclear bodies). The experiment is classed as cell-based. As to conditions: treated tumor cells.
[18] abbreviates: PX-866 (10 μM), AZD6482 (10 μM) or GDC0941 (2 μM) for 48 h.

Results on three compounds are retold here after patent publication US20240342199A1, “COMBINATION THERAPIES TARGETING MITOCHONDRIA FOR CANCER THERAPY” (The Wistar Institute of Anatomy and Biology, priority 2014, published 2024).

Entries after “also recorded” stand apart in the source; their conditions may differ.

Regarding Gamitrinib, the “transcriptional changes induced by PI3K inhibition” value in experiment [1] (Gamitrinib added to PX-866-treated tumor organoids) is “largely reversed the transcriptional changes induced by PI3K inhibition”. The “reactivation of Akt induced by PI3K inhibition” value in experiment [2] is given as “prevented the reactivation of Akt”. Moreover, the “tumor cell proliferation, Bliss independence analysis” value in experiment [3] is reported as “synergistically inhibited tumor cell proliferation”. Besides, the “effect on anticancer activity of PI3K/Akt/MTOR pathway antagonists” value in experiment [4] is given as “potently enhanced the anticancer activity”.
For the compound `O=c1cc(N2CCOCC2)oc2c(-c3ccccc3)cccc12` [LY294002, 2-(4-morpholinyl)-8-phenyl-4H-1-benzopyran-4-one], the PI3 kinase activity result in [5] is given as “specifically abolished PI3 kinase activity”. For the same compound, the “inhibition of c-Src” value in experiment [6] is recorded as “did not inhibit”. Also, the “inhibition of MAP kinase” value in [7] was “did not inhibit”. Moreover, in experiment [8], the “inhibition of PKC” value is given as “did not inhibit”. The “inhibition of PI4 kinase” value in [9] is “did not inhibit”.
On to `C=CCN(/C=C1/C(=O)O[C@H](COC)[C@@]2(C)C1=C(O)C(=O)C1=C2[C@H](OC(C)=O)C[C@]2(C)C(=O)CC[C@@H]12)CC=C` [PX-866], for which the metabolome profile entry in experiment [10] was “extensive metabolic reprogramming”. Also, the “phosphorylated Ser (pSer) reactivity of WT CypD” value in experiment [11] (immunoprecipitated from reconstituted LN229 cells) is recorded as “increased this response; also recorded: increased reactivity with an antibody to pSer”. Moreover, in [11] (reconstituted cells, 10 μM for 48 h), the “levels of endogenous or overexpressed CypD” value is on record as “did not affect”. Moreover, in [12] (10 μM for 48 h), the oxygen consumption result was “suppression of oxygen consumption”. For the same compound, in experiment [12] (setting [18]), the ATP production entry is “reduced ATP production”, the glucose utilization result was “less glucose utilization” and the lactate production entry is listed as “less”. Besides, in [1] (PX-866 (10 μM) for 48 h, GBM organotypic cultures), the “expression of kinome genes” value is reported as “increased the expression of genes associated with growth factor signaling”. Besides, in [13], the “phosphorylation of Akt2 on Ser474” value is “robust and concentration-dependent isoform-specific phosphorylation of Akt2 on Ser474”. The Akt phosphorylation result in experiment [14] is “induced Akt phosphorylation”. For the same compound, in [15] (10 μM), the “cell cycle (DNA content)” value is reported as “arrested in the G1 phase of the cell cycle” and the “proliferation (direct cell counting)” value is reported as “reduced proliferation”. In experiment [15] (LN229 cells, 48 h), the “viability (Trypan blue, MTT)” value is “without significant decrease in viability”. The “long-term colony forming ability” value in experiment [16] is listed as “unaffected”. For the same compound, in experiment [17], the “PML nuclear body number” value is on record as “higher PML nuclear body number” and the “senescence-associated β-galactosidase staining (SA-β-Gal)” value is reported as “increased β-galactosidase staining”.
